The values below are quoted from earlier work in patent US7776915B2, “Topical formulations and methods of use” (Tracie Martyn International, LLC, priority 2005, dated 2010).

One data set deals with neurites in the brain. As to conditions: similar to the stimulating effect of nerve growth factor.
For data set [1] the following is noted: dosages above 500 mg/kg body weight.
In a further data set the target is ACE (Homo sapiens, UniProt P12821). As to conditions: read-out: ACE inhibitor IC50.
Chain of ACE (P12821 30-1306, species assumed): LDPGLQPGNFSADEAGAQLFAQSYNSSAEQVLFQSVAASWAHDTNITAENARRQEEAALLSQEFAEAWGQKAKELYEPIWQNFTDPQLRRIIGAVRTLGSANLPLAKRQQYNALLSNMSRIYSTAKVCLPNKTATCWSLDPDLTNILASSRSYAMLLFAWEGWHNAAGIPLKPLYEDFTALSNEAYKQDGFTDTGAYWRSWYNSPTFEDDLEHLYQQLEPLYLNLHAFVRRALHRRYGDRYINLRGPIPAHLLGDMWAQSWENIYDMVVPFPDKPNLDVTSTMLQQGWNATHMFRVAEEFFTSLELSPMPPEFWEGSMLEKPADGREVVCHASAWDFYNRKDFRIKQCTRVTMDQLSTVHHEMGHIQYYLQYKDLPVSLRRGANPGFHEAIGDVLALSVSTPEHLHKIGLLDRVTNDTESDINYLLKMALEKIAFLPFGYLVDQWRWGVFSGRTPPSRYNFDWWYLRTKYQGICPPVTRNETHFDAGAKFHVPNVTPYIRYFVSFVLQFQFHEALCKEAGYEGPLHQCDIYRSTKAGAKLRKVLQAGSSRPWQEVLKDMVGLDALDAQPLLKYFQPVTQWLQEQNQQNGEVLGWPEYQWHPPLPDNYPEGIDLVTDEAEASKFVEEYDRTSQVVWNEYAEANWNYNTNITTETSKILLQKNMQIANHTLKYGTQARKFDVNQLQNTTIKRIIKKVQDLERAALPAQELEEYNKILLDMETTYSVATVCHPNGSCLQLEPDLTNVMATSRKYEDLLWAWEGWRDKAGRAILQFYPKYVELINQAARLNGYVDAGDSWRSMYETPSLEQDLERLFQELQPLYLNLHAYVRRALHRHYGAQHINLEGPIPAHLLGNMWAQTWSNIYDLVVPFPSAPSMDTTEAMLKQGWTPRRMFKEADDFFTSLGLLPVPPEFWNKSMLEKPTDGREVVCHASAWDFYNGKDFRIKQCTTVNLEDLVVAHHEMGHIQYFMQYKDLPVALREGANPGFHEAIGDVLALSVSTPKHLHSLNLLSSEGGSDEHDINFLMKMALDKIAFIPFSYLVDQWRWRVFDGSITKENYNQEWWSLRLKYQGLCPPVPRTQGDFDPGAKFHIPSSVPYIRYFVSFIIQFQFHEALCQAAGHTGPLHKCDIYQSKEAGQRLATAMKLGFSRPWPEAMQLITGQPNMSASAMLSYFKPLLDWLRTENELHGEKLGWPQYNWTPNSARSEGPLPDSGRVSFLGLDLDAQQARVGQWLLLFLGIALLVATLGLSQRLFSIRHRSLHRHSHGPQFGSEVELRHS

As for `CC(=O)O[C@H](CC(=O)[O-])C[N+](C)(C)C.NC(N)=NCCC[C@H](N)C(=O)O` [Acetyl-1-carnitine-arginate], in the data set on neurites in the brain, the “stimulation of the growth of neurites” value is on record as not above 19.5%.

As for `NCCC(=O)N[C@@H](Cc1cnc[nH]1)C(=O)O` [Carnosine, β-alanyl-L-histidine], the “safety in animal studies” value in data set [1] is “safe”.

In the case of `Cc1ncc(CO)c(CN)c1O` [Pyridoxamine, 4-aminomethyl-5-hydroxy-6-methyl-3-pyridinemethanol], the water solubility entry is given as “water-soluble”.

Usually IC50 stands for the point on the concentration scale where inhibition reaches its midpoint. Turning to `N[C@@H](CCC(=O)N[C@@H](CS)C(=O)NCC(=O)O)C(=O)O` [Glutathione], at ACE, the IC50 is 10.4 µM.
